Laboratory results taken from the supplement of paper PMC11061612.

Legend:
Doxorubicin = compound: COc1cccc2c1C(=O)c1c(O)c3c(c(O)c1C2=O)C[C@@](O)(C(=O)CO)C[C@@H]3O[C@H]1C[C@H](N)[C@H](O)[C@H](C)O1 [Doxorubicin]; conditions: max 1 µM
In short: (§1)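 In 1536-well plates, cancer cell lines in 7.5 μl DMEM/F12 or RPMI with 10% FBS spent 24 hours at 37°C and 5% CO2 and were then dosed for 72 hours with final DMSO typically 0.2%. Viability was read by CellTiter-Glo 2.0 luminescence and scaled between blank-well and DMSO-well means. The single-agent IC50 was fitted from dose responses using a logistic curve in a non-linear mixed effects model, and that logistic curve had two parameters.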

AZD7648 = compound: Cc1cc2ncnn2cc1Nc1ncc2c(n1)n(C1CCOCC1)c(=O)n2C [AZD7648]; conditions: max 10 µM
In short: as §1

Capivasertib = compound: C1CN(CCC1(C(=O)N[C@@H](CCO)C2=CC=C(C=C2)Cl)N)C3=NC=NC4=C3C=CN4 [Capivasertib]; conditions: max 10 µM
In short: as §1

AZD5991 = compound: Cc1c2c(nn1C)CSCc1cc(n(C)n1)CSc1cc(c3ccccc3c1)OCCCc1c(C(=O)O)n(C)c3c-2c(Cl)ccc13 [AZD5991]; conditions: max 1 µM
In short: as §1

AZD6738 = compound: C[C@@H]1COCCN1C2=NC(=NC(=C2)C3(CC3)[S@](=N)(=O)C)C4=C5C=CNC5=NC=C4 [AZD6738]; conditions: max 10 µM
In short: as §1

Taselisib = compound: Cc1nc(-c2cn3c(n2)-c2ccc(-c4cnn(C(C)(C)C(N)=O)c4)cc2OCC3)n(C(C)C)n1 [Taselisib]; conditions: max 10 µM
In short: as §1

Dasatinib = compound: CC1=C(C(=CC=C1)Cl)NC(=O)C2=CN=C(S2)NC3=CC(=NC(=N3)C)N4CCN(CC4)CCO [Dasatinib]; conditions: max 2 µM
In short: as §1

Gefitinib = compound: COc1cc2ncnc(Nc3ccc(F)c(Cl)c3)c2cc1OCCCN1CCOCC1 [Gefitinib]; conditions: max 10 µM
In short: as §1

AZD1775 = compound: C=CCn1c(=O)c2cnc(Nc3ccc(N4CCN(C)CC4)cc3)nc2n1-c1cccc(C(C)(C)O)n1 [AZD1775]; conditions: max 3 µM
In short: as §1

Alisertib = compound: COc1cc(Nc2ncc3c(n2)-c2ccc(Cl)cc2C(c2c(F)cccc2OC)=NC3)ccc1C(=O)O [Alisertib]; conditions: max 10 µM
In short: as §1

Prexasertib = compound: COc1cccc(OCCCN)c1-c1cc(Nc2cnc(C#N)cn2)n[nH]1 [Prexasertib]; conditions: max 1 µM
In short: as §1

Palbociclib = compound: CC(=O)c1c(C)c2cnc(Nc3ccc(N4CCNCC4)cn3)nc2n(C2CCCC2)c1=O [Palbociclib]; conditions: max 10 µM
In short: as §1

Lapatinib = compound: CS(=O)(=O)CCNCc1ccc(-c2ccc3ncnc(Nc4ccc(OCc5cccc(F)c5)c(Cl)c4)c3c2)o1 [Lapatinib]; conditions: max 10 µM
In short: as §1

AZD0156 = compound: CN(C)CCCOc1ccc(-c2ccc3ncc4c(c3c2)n(C2CCOCC2)c(=O)n4C)cn1 [AZD0156]; conditions: max 3 µM
In short: as §1

AZD4320 = compound: CN(CC[C@H](CSC1=CC=CC=C1)NC2=C(C=C(C=C2)S(=O)(=O)NC(=O)C3=CC=C(C=C3)N4CCC(CC4)[C@H](C5=CC=CC=C5C6=CC=C(C=C6)Cl)O)S(=O)(=O)C(F)(F)F)CCO [AZD4320]; conditions: max 1 µM
In short: as §1

Selumetinib = compound: Cn1cnc2c(F)c(Nc3ccc(Br)cc3Cl)c(C(=O)NOCCO)cc21 [Selumetinib]; conditions: max 10 µM
In short: as §1

Venetoclax = compound: CC1(C)CCC(CN2CCN(c3ccc(C(=O)NS(=O)(=O)c4ccc(NCC5CCOCC5)c([N+](=O)[O-])c4)c(Oc4cnc5[nH]ccc5c4)c3)CC2)=C(c2ccc(Cl)cc2)C1 [Venetoclax]; conditions: max 1 µM
In short: as §1

Olaparib = compound: O=C(c1cc(Cc2n[nH]c(=O)c3ccccc23)ccc1F)N1CCN(C(=O)C2CC2)CC1 [Olaparib]; conditions: max 10 µM
In short: as §1

SG3199 = compound: CC1=CN2[C@@H](C1)C=NC3=CC(=C(C=C3C2=O)OC)OCCCCCOC4=C(C=C5C(=C4)N=C[C@@H]6CC(=CN6C5=O)C)OC [SG3199]; conditions: max 0.001 µM
In short: as §1

Crizotinib = compound: C[C@@H](Oc1cc(-c2cnn(C3CCNCC3)c2)cnc1N)c1c(Cl)ccc(F)c1Cl [Crizotinib]; conditions: max 10 µM
In short: as §1

SN-38 = compound: CCc1c2c(nc3ccc(O)cc13)-c1cc3c(c(=O)n1C2)COC(=O)[C@]3(O)CC [SN-38]; conditions: max 0.3 µM
In short: as §1

AZD8186 = compound: C[C@@H](Nc1cc(F)cc(F)c1)c1cc(C(=O)N(C)C)cc2c(=O)cc(N3CCOCC3)oc12 [AZD8186]; conditions: max 3 µM
In short: as §1

Trametinib = compound: CC(=O)Nc1cccc(-n2c(=O)n(C3CC3)c(=O)c3c(Nc4ccc(I)cc4F)n(C)c(=O)c(C)c32)c1 [Trametinib]; conditions: max 1 µM
In short: as §1

AZD2811 = compound: CCN(CCO)CCCOc1ccc2c(Nc3cc(CC(=O)Nc4cccc(F)c4)[nH]n3)ncnc2c1 [AZD2811]; conditions: max 1 µM
In short: as §1

AZD5153 = compound: COc1nnc2ccc(N3CCC(c4ccc(OCCN5CCN(C)C(=O)[C@H]5C)cc4)CC3)nn12 [AZD5153]; conditions: max 1 µM
In short: as §1

MK-2206 = compound: NC1(c2ccc(-c3nc4ccn5c(=O)[nH]nc5c4cc3-c3ccccc3)cc2)CCC1 [MK-2206]; conditions: max 10 µM
In short: as §1

AZD1390 = compound: CC(C)n1c(=O)n(C)c2cnc3cc(F)c(-c4ccc(OCCCN5CCCCC5)nc4)cc3c21 [AZD1390]; conditions: max 0.3 µM
In short: as §1

Savolitinib = compound: C[C@@H](c1ccc2nccn2c1)n1nnc2ncc(-c3cnn(C)c3)nc21 [Savolitinib]; conditions: max 1 µM
In short: as §1

| Cell Line | IC50, cell viability 72 h (Doxorubicin) | IC50, cell viability 72 h (AZD7648) | IC50, cell viability 72 h (Capivasertib) | IC50, cell viability 72 h (AZD5991) | IC50, cell viability 72 h (AZD6738) | IC50, cell viability 72 h (Taselisib) | IC50, cell viability 72 h (Dasatinib) | IC50, cell viability 72 h (Gefitinib) | IC50, cell viability 72 h (AZD1775) | IC50, cell viability 72 h (Alisertib) | IC50, cell viability 72 h (Prexasertib) | IC50, cell viability 72 h (Palbociclib) | IC50, cell viability 72 h (Lapatinib) | IC50, cell viability 72 h (AZD0156) | IC50, cell viability 72 h (AZD4320) | IC50, cell viability 72 h (Selumetinib) | IC50, cell viability 72 h (Venetoclax) | IC50, cell viability 72 h (Olaparib) | IC50, cell viability 72 h (SG3199) | IC50, cell viability 72 h (Crizotinib) | IC50, cell viability 72 h (SN-38) | IC50, cell viability 72 h (AZD8186) | IC50, cell viability 72 h (Trametinib) | IC50, cell viability 72 h (AZD2811) | IC50, cell viability 72 h (AZD5153) | IC50, cell viability 72 h (MK-2206) | IC50, cell viability 72 h (AZD1390) | IC50, cell viability 72 h (Savolitinib) |
| --- | --- | --- | --- | --- | --- | --- | --- | --- | --- | --- | --- | --- | --- | --- | --- | --- | --- | --- | --- | --- | --- | --- | --- | --- | --- | --- | --- | --- |
| ES-2 (Ovarian Carcinoma) | > 1000 nM | > 10 µM | > 10 µM | > 1000 nM | 3.78 µM | > 10 µM | > 2000 nM | > 10 µM | 476 nM | 596 nM | 40.1 nM | > 10 µM | > 10 µM | > 3000 nM | > 1000 nM | 7.43 µM | > 1000 nM | > 10 µM | > 1 nM | > 10 µM | 14.5 nM | > 3000 nM | 128 nM | > 1000 nM | 875 nM | 4.4 µM | > 300 nM | > 1000 nM |
| HuO-3N1 (Osteosarcoma) | 616 nM | > 10 µM | > 10 µM | 613 nM | > 10 µM | 6.88 µM | 305 nM | > 10 µM | > 3000 nM | > 10000 nM | 529 nM | > 10 µM | > 10 µM | > 3000 nM | > 1000 nM | > 10 µM | > 1000 nM | > 10 µM | > 1 nM | > 10 µM | 275 nM | > 3000 nM | > 1000 nM | > 1000 nM | > 1000 nM | > 10 µM | > 300 nM | > 1000 nM |
| RT4 (Bladder Carcinoma) | 642 nM | > 10 µM | > 10 µM | > 1000 nM | > 10 µM | > 10 µM | > 2000 nM | > 10 µM | 2260 nM | 2400 nM | > 1000 nM | > 10 µM | > 10 µM | > 3000 nM | > 1000 nM | > 10 µM | > 1000 nM | > 10 µM | > 1 nM | > 10 µM | 43.4 nM | > 3000 nM | 328 nM | > 1000 nM | 840 nM |  | > 300 nM | > 1000 nM |
| OCI-AML5 (Acute Myeloid Leukemia) | 658 nM | > 10 µM | > 10 µM | 58.8 nM | 2.24 µM | 2.19 µM | > 2000 nM | > 10 µM | 543 nM | 1130 nM | 13.4 nM | 6.64 µM | > 10 µM | > 3000 nM | 42.7 nM | 2.12 µM | 50.6 nM | > 10 µM | > 1 nM | 2.41 µM | 9.54 nM | > 3000 nM | 28.9 nM | 18.6 nM | 323 nM |  | > 300 nM | > 1000 nM |
| 786-0 (Kidney Carcinoma) | 571 nM | > 10 µM | 4.54 µM | > 1000 nM | 5.55 µM | > 10 µM | 396 nM | > 10 µM | 392 nM | > 10000 nM | 28.8 nM | > 10 µM | 6.48 µM | > 3000 nM | > 1000 nM | > 10 µM | > 1000 nM | > 10 µM | > 1 nM | > 10 µM | 23 nM | > 3000 nM | > 1000 nM | > 1000 nM | 523 nM |  | > 300 nM | > 1000 nM |
| SJRH30 (Rhabdomyosarcoma) | 967 nM | > 10 µM | 4.7 µM | 980 nM | 3.8 µM | 1.47 µM | > 2000 nM | > 10 µM | 317 nM | 9410 nM | 15.9 nM | > 10 µM | > 10 µM | > 3000 nM | > 1000 nM | > 10 µM | > 1000 nM | > 10 µM | > 1 nM | 5.22 µM | > 300 nM | > 3000 nM | > 1000 nM | > 1000 nM | > 1000 nM | > 10 µM | > 300 nM | > 1000 nM |
